The source of these data is patent US20260294922A1, “Inhibitors of JUN N-Terminal Kinases (JNK1, JNK2, and/or JNK3) and Mitogen-Activated Protein Kinases (MAPK8, MAPK9, and/or MAPK10) and Methods of Using Same” (Baylor College of Medicine, priority 2023, published 2026).

Values after ≈ are worked out from the molar mass of the structure shown. A value given as a limit tells only on which side of the number the result lay.

A short description of series [1]: In vitro metabolism in mouse liver microsomes. The following applies: for half-life: mouse, microsomes. As for the experimental part:
(§1) The target product profile seeks to deliver JNK inhibitor as a once daily oral administration. To prioritize compounds for further development, in vitro metabolism of several CDD JNK inhibitors were determined to approximate the plasma half-life and the rate of metabolism of the compounds in vivo.

Series [2] in a line: In vitro metabolism in human liver microsomes. To be noted: for half-life: human, microsomes. As for the experimental part:
as §1
Background: Liver microsomes are a subcellular fraction often used to study metabolism.

The target in the next series is JNK2 (Homo sapiens, UniProt P45984). As to the kind of experiment: JNK2 kinase (intrinsic ATPase, Kinase-Glo) assay. Format: biochemical. To be noted: for Kd: Table 3a, read-out: Kd JNK2. In general terms: In Kinase-Glo more light means more ATP remaining.
The target of another series is JNK3 (Homo sapiens, UniProt P53779). As to the kind of experiment: JNK3 kinase (intrinsic ATPase, Kinase-Glo) assay. The following applies: for Kd: Table 3a, read-out: Kd JNK3. Format: biochemical.
In the next series the target is JNK1 (Homo sapiens, UniProt P45983). As to the kind of experiment: JNK1 kinase (intrinsic ATPase, Kinase-Glo) assay. Format: biochemical. As to the method: JNK1, JNK2, and JNK3 hydrolyze ATP to ADP without any peptide substrates. This allows a very robust and fast endpoint assay where the remaining concentration of ATP is measured (BMG ClarioStar Plus plate reader) using the Kinase-Glo Assay kit from Promega (V6711). A luminescence signal is measured, which is produced by the catalytic conversion of beetle luciferin to oxyluciferin by luciferase. Potential inhibition of luciferase (i.e., false negatives) is easily detected, because assays without kinase are always included, and less ATP than is present in this control reaction could also indicate an inhibition of luciferase, which can be excluded by a counter screen with only luciferase.
To mitigate violation of the linear initial velocity principle, which is a problem in end-point assays when doing dose-responses, the enzyme concentration was carefully optimized, in a total assay volume of 25 μL. […] The kinase reaction was done for 30 or 60 min at 30° C., and detection of leftover ATP was measured according to Promega's protocol. […] Fractional activities were obtained from normalized data. Non-linear regression (GraphPad Prism7) and a modified Morrison equation for tight binding was used to determine apparent Ki values for inhibitors, assuming no particular mode of inhibition. An orthogonal binding assay (LanthaScreen) was outsourced to ThermoFisher Scientific's SelectScreen Services to determine IC50 values.

Sequence of JNK2 (P45984 whole entry): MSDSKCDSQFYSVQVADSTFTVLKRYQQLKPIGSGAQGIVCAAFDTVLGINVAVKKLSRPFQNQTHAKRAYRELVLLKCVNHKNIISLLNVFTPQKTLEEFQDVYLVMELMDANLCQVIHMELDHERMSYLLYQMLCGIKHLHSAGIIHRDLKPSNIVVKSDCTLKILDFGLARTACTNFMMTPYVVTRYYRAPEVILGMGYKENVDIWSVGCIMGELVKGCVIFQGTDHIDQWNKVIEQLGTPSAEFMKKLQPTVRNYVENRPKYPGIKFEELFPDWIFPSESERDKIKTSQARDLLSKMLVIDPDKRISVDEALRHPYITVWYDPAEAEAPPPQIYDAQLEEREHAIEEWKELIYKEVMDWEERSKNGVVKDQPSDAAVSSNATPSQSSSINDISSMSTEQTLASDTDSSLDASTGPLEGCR
Sequence of JNK1 (P45983 whole entry): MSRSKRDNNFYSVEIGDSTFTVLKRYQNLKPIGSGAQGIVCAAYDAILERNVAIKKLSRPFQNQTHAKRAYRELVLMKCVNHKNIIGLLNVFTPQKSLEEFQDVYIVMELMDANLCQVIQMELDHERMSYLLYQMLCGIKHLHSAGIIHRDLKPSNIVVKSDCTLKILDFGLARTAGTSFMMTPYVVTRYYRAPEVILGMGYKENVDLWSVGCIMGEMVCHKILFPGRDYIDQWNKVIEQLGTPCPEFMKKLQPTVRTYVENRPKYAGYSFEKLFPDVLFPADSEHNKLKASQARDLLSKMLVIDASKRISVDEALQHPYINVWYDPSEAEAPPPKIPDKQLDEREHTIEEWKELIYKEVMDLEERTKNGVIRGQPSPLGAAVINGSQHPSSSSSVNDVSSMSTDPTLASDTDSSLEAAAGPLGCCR
Sequence of JNK3 (P53779 whole entry): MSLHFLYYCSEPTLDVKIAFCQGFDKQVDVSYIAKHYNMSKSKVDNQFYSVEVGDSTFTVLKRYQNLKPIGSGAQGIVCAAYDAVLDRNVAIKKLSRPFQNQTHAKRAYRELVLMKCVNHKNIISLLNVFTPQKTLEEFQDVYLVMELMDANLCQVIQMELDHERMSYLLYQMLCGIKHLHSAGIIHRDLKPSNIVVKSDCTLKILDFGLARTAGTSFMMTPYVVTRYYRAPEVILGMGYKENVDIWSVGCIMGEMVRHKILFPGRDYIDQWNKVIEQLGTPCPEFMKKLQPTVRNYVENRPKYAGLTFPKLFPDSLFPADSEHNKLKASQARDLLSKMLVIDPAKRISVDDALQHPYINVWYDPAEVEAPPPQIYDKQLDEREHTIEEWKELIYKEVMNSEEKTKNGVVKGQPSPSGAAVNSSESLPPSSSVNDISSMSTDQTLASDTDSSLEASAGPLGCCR

Consider `Cc1nnc2n1-c1ccc(Cl)cc1C(c1ccccc1)=NC2` [Alprazolam, reference compound], for which the “Predicted half-life, MLM t1/2” value in series [1] was 3.975 h. Besides, the “Predicted half-life, HLM t1/2” value in series [2] is 12.63 h.

In the case of `O=C(Nc1ccc(C(F)(F)F)cc1)c1ccn2ncc(-c3cnc4[nH]ccc4c3)c2c1` [CDD-2483, 3-(1H-pyrrolo[2,3-b]pyridin-5-yl)-N-(4-(trifluoromethyl)phenyl)pyrazolo[1,5-a]pyridine-5-carboxamide], the figures for the Ki on JNK2 and on JNK3 were 339 nM and 167 nM, respectively. Further, in the series “Solubility”, the concentration in solution (solubility) was 0.6 µM (≈ 0.253 µg/mL).

For `O=C(Nc1ccccc1)c1ccn2ncc(-c3cnc4[nH]ccc4c3)c2c1` [CDD-2485, N-phenyl-3-(1H-pyrrolo[2,3-b]pyridin-5-yl)pyrazolo[1,5-a]pyridine-5-carboxamide], the dissociation constant Kd (as a rule, the concentration at which binding is half-saturated) on JNK1 worked out at 0.12 ± 0.09 nM; at JNK2 it was 0.95 ± 0.16 nM; on JNK3, 0.73 ± 0.02 nM.

Regarding `COc1ccc(NC(=O)c2cc3c(-c4cnc5[nH]ccc5c4)cccc3s2)cc1` [CDD-2629, N-(4-methoxyphenyl)-4-(1H-pyrrolo[2,3-b]pyridin-5-yl)benzo[b]thiophene-2-carboxamide], the Kd on JNK1 was found to be 7.8 ± 1.4 nM; on JNK2 it was 15.4 ± 1.4 nM; on JNK3, 9.9 ± 1.3 nM.

For `O=C(Nc1ccccc1)c1cc2c(-c3cnc4[nH]ccc4c3)cccc2s1` [CDD-2631, N-phenyl-4-(1H-pyrrolo[2,3-b]pyridin-5-yl)benzo[b]thiophene-2-carboxamide], the results for the Kd on JNK1, at JNK2 and at JNK3 were 5.9 ± 1.1 nM, 27.8 ± 3.6 nM and 12.7 ± 1.2 nM, respectively.

Consider `CN(C)C(=O)c1cccc(NC(=O)c2cc3c(-c4cnc5[nH]ccc5c4)cccc3s2)c1` [CDD-2632, N-(3-(dimethylcarbamoyl)phenyl)-4-(1H-pyrrolo[2,3-b]pyridin-5-yl)benzo[b]thiophene-2-carboxamide], for which the Kd on JNK1 stood at 4.91 ± 0.9 nM; on JNK2, 3.5 ± 1.4 nM; on JNK3 it was 5.82 ± 0.92 nM. The concentration in solution in “Solubility” (solubility) was 0.6 µM (≈ 0.264 µg/mL).

As to `CN(C)C(=O)c1cc(NC(=O)c2cc3c(-c4cnc5[nH]ccc5c4)cccc3s2)ccc1F` [CDD-2730, N-(3-(dimethylcarbamoyl)-4-fluorophenyl)-4-(1H-pyrrolo[2,3-b]pyridin-5-yl)benzo[b]thiophene-2-carboxamide], the dissociation constant (Kd) is 0.58 ± 0.08 nM on JNK1, 5.33 ± 0.52 nM on JNK2 and 1.86 ± 0.18 nM on JNK3. The solubility – broadly, the dissolved amount per volume that the medium holds – in the series “Solubility” came to 0.3 µM (≈ 0.138 µg/mL).

Regarding `CN(C)C(=O)c1cc(NC(=O)c2cc3c(-c4cnc5[nH]ccc5c4)cccc3s2)ccc1C(F)(F)F` [CDD-2732, N-(3-(dimethylcarbamoyl)-4-(trifluoromethyl)phenyl)-4-(1H-pyrrolo[2,3-b]pyridin-5-yl)benzo[b]thiophene-2-carboxamide], the Kd on JNK1 stood at 14.3 ± 1.6 nM; at JNK2, 67 ± 11 nM; at JNK3, 24.3 ± 1.9 nM.

In the case of `CN(C)C(=O)c1cc(NC(=O)c2cc3c(-c4cnc5[nH]ccc5c4)cccc3s2)ccc1OC(F)(F)F` [CDD-2857, N-(3-(dimethylcarbamoyl)-4-(trifluoromethoxy)phenyl)-4-(1H-pyrrolo[2,3-b]pyridin-5-yl)benzo[b]thiophene-2-carboxamide], the Kd on JNK1 amounted to 11.3 ± 3.4 nM; at JNK2, 49.8 ± 9.7 nM; on JNK3, 15.7 ± 1.2 nM. The half-life (usually the time needed for the level to fall by half in the phase considered) in series [1] was found to be 1.42 h; in series [2] it was 2.88 h.

On to `CN(C)C(=O)c1cc(NC(=O)c2ccc3ncc(-c4cnc5[nH]ccc5c4)n3c2)ccc1O` [CDD-3016], for which the Kd was 0.65 ± 0.15 nM at JNK1, 5.77 ± 0.8 nM at JNK2 and 1.48 ± 0.14 nM on JNK3. Moreover, the results for the half-life in series [1] and in series [2] were 5.3 h and 4.88 h, respectively. The same molecule yielded a solubility in “Solubility” of 9.7 µM (≈ 4.27 µg/mL).

As for `CN(C)CCNC(=O)c1cc2c(-c3cnc4[nH]ccc4c3)cccc2s1` [CDD-3085, N-(2-(dimethylamino)ethyl)-4-(1H-pyrrolo[2,3-b]pyridin-5-yl)benzo[b]thiophene-2-carboxamide], the Kd was 13.1 ± 1.2 nM at JNK1, 42.8 ± 8.3 nM on JNK2 and 30.3 ± 2.7 nM at JNK3. The half-life is 1.17 h in series [1] and 7.5 h in series [2]. Besides, the solubility in “Solubility” was 170 µM (≈ 62 µg/mL).

`CN(C)CCNC(=O)c1cc(NC(=O)c2cc3c(-c4cnc5[nH]ccc5c4)cccc3s2)ccc1O` [CDD-3086, N-(3-((2-(dimethylamino)ethyl)carbamoyl)-4-hydroxyphenyl)-4-(1H-pyrrolo[2,3-b]pyridin-5-yl)benzo[b]thiophene-2-carboxamide]: the values for the Kd at JNK1, on JNK2 and on JNK3 were 0.67 ± 0.14 nM, 5.98 ± 0.42 nM and 5.21 ± 0.46 nM, respectively. For the same molecule, the results for the half-life in series [1] and in series [2] were 1.5 h and 1.68 h, respectively. In “Solubility”, this molecule had a solubility of 2 µM (≈ 0.999 µg/mL).

For the molecule `CNC(=O)c1cc(NC(=O)c2cc3c(-c4cnc5[nH]ccc5c4)cccc3s2)ccc1O` [CDD-3087, N-(4-hydroxy-3-(methylcarbamoyl)phenyl)-4-(1H-pyrrolo[2,3-b]pyridin-5-yl)benzo[b]thiophene-2-carboxamide], the Kd stood at 1.96 ± 0.53 nM on JNK1, 11.4 ± 0.81 nM on JNK2 and 4.54 ± 0.5 nM at JNK3. In addition, the half-life in series [1] worked out at 1.28 h; in series [2], 1.97 h. This molecule also displayed a solubility in the series “Solubility” of 0.4 µM (≈ 0.177 µg/mL).

`CN(C)C(=O)c1cc(NC(=O)c2cc3c(-c4cnc5[nH]ccc5c4)cncc3s2)ccc1O` [CDD-3111, N-(3-(dimethylcarbamoyl)-4-hydroxyphenyl)-4-(1H-pyrrolo[2,3-b]pyridin-5-yl)thieno[2,3-c]pyridine-2-carboxamide]: the Kd stood at 0.07 ± 0.05 nM at JNK1, 0.73 ± 0.1 nM on JNK2 and 0.32 ± 0.04 nM at JNK3. The half-life in series [1] stood at 2.07 h; in series [2] it was 2.22 h. Further, the solubility in “Solubility” worked out at 3.8 µM (≈ 1.74 µg/mL).

As to `O=C(Nc1ccc(O)c(C(=O)NC2COC2)c1)c1cc2c(-c3cnc4[nH]ccc4c3)cccc2s1` [CDD-3112, N-(4-hydroxy-3-(oxetan-3-ylcarbamoyl)phenyl)-4-(1H-pyrrolo[2,3-b]pyridin-5-yl)benzo[b]thiophene-2-carboxamide], the Kd at JNK1 came to 2.84 ± 0.49 nM; at JNK2, 13.5 ± 0.8 nM; on JNK3 it was 6.4 ± 0.6 nM. Moreover, the figures for the half-life in series [1] and in series [2] were 2.83 h and 1.65 h, respectively. This molecule gave a solubility in the series “Solubility” of 1.6 µM (≈ 0.775 µg/mL).

Regarding `O=C(Nc1ccc(O)c(C(=O)NCC2CC2)c1)c1cc2c(-c3cnc4[nH]ccc4c3)cccc2s1` [CDD-3113, N-(3-((cyclopropylmethyl)carbamoyl)-4-hydroxyphenyl)-4-(1H-pyrrolo[2,3-b]pyridin-5-yl)benzo[b]thiophene-2-carboxamide], the dissociation constant Kd at JNK1 amounted to 10.4 ± 1.4 nM; at JNK2, 40.7 ± 5.5 nM; on JNK3, 10.9 ± 0.7 nM. Also, the values for the half-life in series [1] and in series [2] were 3.15 h and 4.8 h, respectively.

On to `O=C(Nc1ccc2c(c1)C(=O)NC2)c1cc2c(-c3cnc4[nH]ccc4c3)cccc2s1` [CDD-3115, N-(3-oxoisoindolin-5-yl)-4-(1H-pyrrolo[2,3-b]pyridin-5-yl)benzo[b]thiophene-2-carboxamide], for which the Kd is 1.5 ± 0.2 nM at JNK1, 6.3 ± 0.6 nM at JNK2 and 4.6 ± 0.7 nM on JNK3. The half-life was found to be 1.43 h in series [1] and 14.8 h in series [2]. This molecule displayed a solubility in “Solubility” of 1.4 µM (≈ 0.594 µg/mL).

With `O=C(c1cc2c(-c3cnc4[nH]ccc4c3)cccc2s1)N1CCN(c2ccccc2)C(=O)C1` [CDD-3116, 4-(4-(1H-pyrrolo[2,3-b]pyridin-5-yl)benzo[b]thiophene-2-carbonyl)-1-phenylpiperazin-2-one], the Kd on JNK1 is 54.5 ± 5.4 nM; on JNK2, 447 ± 65 nM; on JNK3, 114 ± 7 nM. The half-life in series [1] was found to be 0.567 h; in series [2], 0.8 h. The molecule further came in with a solubility in “Solubility” of 4.2 µM (≈ 1.9 µg/mL).

`CCN(CC)Cc1cc(NC(=O)c2cc3c(-c4cnc5[nH]ccc5c4)cccc3s2)ccc1O` [CDD-3117, N-(3-((diethylamino)methyl)-4-hydroxyphenyl)-4-(1H-pyrrolo[2,3-b]pyridin-5-yl)benzo[b]thiophene-2-carboxamide]: the Kd on JNK1 came out at 0.9 ± 0.2 nM; on JNK2 it was 2.1 ± 0.3 nM; at JNK3 it was 2.9 ± 0.4 nM. Further, the figures for the half-life in series [1] and in series [2] were 1.9 h and 0.517 h, respectively. The same molecule registered a solubility in “Solubility” of 3.4 µM (≈ 1.6 µg/mL).

`N#Cc1cc(NC(=O)c2cc3c(-c4cnc5[nH]ccc5c4)cccc3s2)ccc1O` [CDD-3126, N-(3-cyano-4-hydroxyphenyl)-4-(1H-pyrrolo[2,3-b]pyridin-5-yl)benzo[b]thiophene-2-carboxamide]: on JNK1 (Table 3b, read-out: Ki(app) JNK1), the Ki worked out at 30 nM. Further, the half-life in series [1] amounted to 2.4 h; in series [2], 5.4 h. This molecule yielded a solubility in the series “Solubility” of over 200 µM.

For `Cc1sc2c(c1C)C(c1ccc(Cl)cc1)=N[C@@H](CC(=O)OC(C)(C)C)c1nnc(C)n1-2` [JQ1, reference compound], the “Predicted half-life, MLM t1/2” value in series [1] is 0.193 h. Moreover, the “Predicted half-life, HLM t1/2” value in series [2] was 0.275 h.
